These results are taken from patent US4728659A, “Aminomethyl derivatives and preparation process thereof as well as platelet aggregation inhibitors containing same” (SS Pharmaceutical Co., Ltd., priority 1984, dated 1988).

Converted amounts (≈) assume the structure as drawn.

For series [1], the system named is platelet aggregation by ADP. Briefly: Inhibition of aggregation of rabbit platelets (PRP) by ADP. The conditions noted are these: Oryctolagus cuniculus, ADP 3 μM, compound added 2 minutes before agent, read-out: 50% Platelet Aggregation Inhibitory Concentration (IC50), ADP. Format: cell-based. The procedure: (§1) Blood, which had been added with sodium citrate, was collected from a male rabbit (body weight: 3 Kg), which was then subjected suitably to centrifugation so that platelet-rich plasma (PRP) and platelet-poor plasma (PPP) were obtained. Inhibitory effects of certain sample compounds of this invention against aggregation by ADP (3 μM) and arachidonic acid (1 mM) were thereafter tested by a method known per se in the art. Each sample compound was dissolved in 5% dimethylsulfoxide (DMSO) and Tween 80 (trade mark) and was then added to PRP 2 minutes before addition of each of the aggregation agents to the PRP.

The subject of series [2] is platelet aggregation by arachidonic acid. Briefly: Inhibition of aggregation of rabbit platelets (PRP) by arachidonic acid. Format: cell-based. The conditions noted are these: Oryctolagus cuniculus, arachidonic acid 1 mM, compound added 2 minutes before agent, read-out: 50% Platelet Aggregation Inhibitory Concentration (IC50), Arachidonic acid. The procedure:
as §1

Series [3] can be described thus: Acute toxicity, intraperitoneal, mice. The conditions noted are these: for LD50 at 168 h: mouse, in vivo, ip; for abnormality observed / survival of mice: 200 mg/Kg intraperitoneal, five ddY male mice, after 7 days. In kind it is in vivo. As for the experimental part: Each of certain sample compounds (which had been obtained in Examples 6, 7, 10 and 15-17, which will be given herein) was dissolved in water and was then administered intraperitoneally at a dose of 200 mg/Kg to a group of five ddY male mice. Those mice were fed for 7 days while observing them.

For series [4], the system named is platelet aggregation by ADP. In words: Platelet aggregation by ADP in PRP after oral administration to rats (ex vivo). The conditions noted are these: 30 mg/Kg oral, male Wister rat, blood collected 2 hours after administration, 60 μM ADP, read-out: Percent inhibition against aggregation, ADP. As for the experimental part: (§2) Each sample compound was orally administered at 30 mg/Kg to a male Wister rat (body weight: 220 g) which had fasted for 24 hours. Platelet-rich plasma was obtained from blood which had been collected 2 hours after the administration and added with sodium citrate. Changes in platelet aggregation upon addition of 60 μM of ADP or 100 μg/ml of collagen were observed. The number of platelets was adjusted to 6×10^5 platelets/mm^3 for aggregation by ADP and to 3×10^5 platelets/mm^3 for aggregation by collagen. Each of the sample compounds was dissolved in DMSO+Tween 80 (trade mark) prior to its administration.

For series [5], the system named is platelet aggregation by collagen. In words: Platelet aggregation by collagen in PRP after oral administration to rats (ex vivo). The conditions noted are these: 30 mg/Kg oral, male Wister rat, blood collected 2 hours after administration, 100 μg/ml collagen, read-out: Percent inhibition against aggregation, collagen. The procedure:
as §2

Setting [6] is: intraperitoneal, ddY male mice, 7 days observation.

Regarding `CN(C)CC#CC(=O)c1ccccc1` [Example 15, N-(4-Phenyl-4-oxo-2-butynyl)-N,N-dimethylamine], the IC50 in series [1] came to 21 µg/mL (≈ 112 µM); in series [2], 4.7 µg/mL (≈ 25.1 µM). Moreover, the LD50 at 168 h in series [3] (setting [6]) was > 200 mg/kg.

As for `CCN(CC)CC#CC(=O)c1ccccc1` [Example 17], the IC50 in series [1] was found to be 20 µg/mL (≈ 92.9 µM); in series [2], 4.5 µg/mL (≈ 20.9 µM). Besides, the LD50 at 168 h in series [3] is > 200 mg/kg.

Turning to `CCN(CC)CC#CC(=O)c1ccc(C)cc1` [Example 1, N-[4-(p-Methylphenyl)-4-oxo-2-butynyl]-N,N-diethylamine], the IC50 in series [1] came out at 7 µg/mL (≈ 30.5 µM); in series [2], 2.5 µg/mL (≈ 10.9 µM).

For the molecule `CCN(CC)CC#CC(OC(=O)c1cccnc1)c1ccc(OC)cc1` (centres unmarked) [Example 10], in series [3], the abnormality observed result is “no abnormality was observed”, the survival of mice result was “all the mice were still alive” and the LD50 at 168 h is > 200 mg/kg.

For the molecule `CCN(CC)CC#CC(OC(=O)c1cccnc1)c1ccc(C)cc1` (centres unmarked) [Example 7], the inhibition at 30 mg/kg in series [4] worked out at 20.1%. The inhibition at 30 mg/kg in series [5] was 37.6%. In series [3], the abnormality observed result is recorded as “no abnormality was observed”, the survival of mice result is reported as “all the mice were still alive” and the LD50 at 168 h is > 200 mg/kg.

Regarding `CCN(CC)C/C=C/C(OC(=O)c1cccnc1)c1ccc(C)cc1` (centres unmarked) [Example 13], the inhibition at 30 mg/kg was found to be 30.5% in series [4] and 31.5% in series [5].

Turning to `CCN(CC)CC#CC(=O)c1ccc(OC)cc1` [Example 4], the IC50 in series [1] is 9 µg/mL (≈ 36.7 µM); in series [2] it was 3.6 µg/mL (≈ 14.7 µM).

Turning to `CCN(CC)CC#CC(OC(=O)c1cccnc1)c1ccccc1` (centres unmarked) [Example 6, N-(4-Nicotinoyloxy-4-phenyl-2-butynyl)-N,N-diethylamine], in series [3], the abnormality observed result is listed as “no abnormality was observed” and the survival of mice result is recorded as “all the mice were still alive”. Further, in series [3] (setting [6]), the LD50 at 168 h was > 200 mg/kg.

Regarding `CCCN(CC)CC#CC(=O)c1ccccc1` [Example 16, N-(4-Phenyl-4-oxo-2-butynyl)-N-ethyl-N-n-propylamine], the IC50 in series [1] stood at 18 µg/mL (≈ 78.5 µM); in series [2], 4.3 µg/mL (≈ 18.8 µM). Moreover, in series [3] (setting [6]), the LD50 at 168 h was > 200 mg/kg.

What is called LD50 is the dose expected to kill half of the subjects tested. A word on the inhibition: it is how much of the control response was suppressed.
